Assay results reported in patent US12128023B2, “Pharmaceutical composition containing B-lapachone as active ingredient for prevention or treatment of cholestatic liver disease” (CUROME BIOSCIENCES CO., LTD., priority 2020, dated 2024).

Tests used:
[1] = system: LX-2 hepatic stellate cell line; assay: Fibronectin and α-SMA protein expression in TGF-β1-treated LX-2 hepatic stellate cell line (immunoblotting); type: cell-based; conditions: LX-2, 1 ng/ml TGF-β1 + 0.5 or 1 μM β-lapachone, 24 hours
Procedure: Considering that inflammation and fibrosis of bile ducts cause cirrhosis in cholestatic liver disease, experiments were performed on the LX-2 hepatic stellate cell line model by using the method of Takaaki Higashi et al. (2017). The LX-2 cell line was subcultured in DMEM containing 10% FBS, 2 mM glutamine, 100 U penicillin, and 0.1 mg/ml streptomycin. The LX-2 cell line was added into a 6-well plate at a density of 16×10^4 cells/well, and cultured in DMEM containing 1 ng/ml TGF-β1, 1 ng/ml TGF-β1+0.5 μM β-lapachone or 1 ng/ml TGF-β1+1 μM β-lapachone for 24 hours. Thereafter, the protein expression levels of the fibrosis-related genes fibronectin and α-SMA of the obtained cells were measured by protein immunoblotting according to a conventional method known in the art.

[2] = system: DDC-induced cholestatic liver disease mice; assay: DDC-induced cholestatic liver disease mice, DDC and β-lapachone administered together for 7 days; type: in vivo, C57BL/6 male mice
Procedure: To investigate the effect of β-lapachone (BL) on the occurrence of cholestatic liver disease, both […] and β-lapachone were administered to mice to characterize animal models.
After 8-week-old C57BL/6 male mice (Samtako, Korea) were divided into each group (=6), the mice were fed a diet with normal (vehicle), control (DDC), DDC-+β-lapachone 20 mg/kg, DDC+β-lapachone 40 mg/kg, DDC+β-lapachone 80 mg/kg, DDC+β-lapachone 100 mg/kg, and positive control DDC+ursodeoxycholic acid 100 mg/kg, and DDC+obeticholic acid 30 mg/kg (total 7 days). After 7 days of treatment, the mice were sacrificed and then the blood was collected from the heart. Thereafter, the levels of alanine aminotransferase (ALT), aspartate aminotransferase (AST), alkaline phosphatase (ALP), and bilirubin, which are blood indexes, were analyzed, and shown in FIG. 4.
After the cholestatic liver disease mouse animal models in Example 3.1 were sacrificed and the liver tissue was harvested therefrom, the mRNA levels of fibrosis-related genes were measured by a method similar to the method in Example 2.3.
In the cholestatic liver disease, the inflammation in the portal vein and damage to the bile ducts in the liver occur chronically, resulting in cholestasis and liver fibrosis. The mRNA levels of inflammatory cytokine genes in the liver tissue of the cholestatic liver disease mouse animal models obtained by the same method as in Example 3.1 were measured, and shown in FIG. 6.

[3] = system: macrophage line Raw264.7; assay: Inflammatory cytokine release in LPS and ATP treated macrophage line Raw264.7 (ELISA); type: cell-based; conditions: Raw264.7, LPS 100 ng/ml, ATP 2.5 mM, 0.2, 0.5, 1, 2 μM β-lapachone, 24 hours; supernatant ELISA
Procedure: The macrophage line Raw264.7 (ATCC TIB-71, Manassas, VA, USA) was subcultured in DMEM supplemented with 10% FBS and 1% penicillin/streptomycin.
For inflammation induction, RAW264.7 cells were suspended in DMEM containing 2% FBS, inoculated in a 12-well plate to a cell number of 4×10^5/ml, and incubated in 5% CO2 incubator at 37° C. for 24 hours. With replacement with fresh media, the cells were treated with appropriate concentrations of a corresponding substance, LPS (100 ng/ml), and 0.2, 0.5, 1, and 2 μM β-lapachone, cultured for 24 hours, treated with ATP (2.5 mM), and then cultured for additional 30 minutes, and the supernatant was collected. The release of cytokines (IL-1β and TNF-α) of RaW264.7 macrophages was quantified using each cell-free supernatant-ELISA set (Invitrogen, Billerica, MA, USA) by Invitrogen according to the manufacture's instruction, and is shown in FIG. 14.

[4] = system: DSS-induced inflammatory bowel disease mice; assay: DSS-induced inflammatory bowel disease (acute colitis) mouse models; type: in vivo, C57BL/6 female mice; conditions: for mortality (percent of mice that died): 14th day of the experiment, 70% died in DSS-induced IBD mice
Procedure: Dextran sodium sulfate (DSS)-induced acute colitis mouse models were constructed using 8-week-old C57BL/6 female mice (Samtako, Korea).
After 8-week-old C57BL/6 female mice (Samtako, Korea) were divided into each group (=10), each experimental group was fed a standard rodent diet supplemented with 3% (w/w) DSS in drinking water for the first 5 days to induce acute colitis and orally administered control (vehicle), β-lapachone 40 mg/kg, and β-lapachone 80 mg/kg for 14 days.
All animal-related procedures were discussed and approved by the Institutional Animal Care and Use Committee of the Hanyang University. The survival rate over time is shown in FIG. 9, and the change rate in body weight of mice in each experimental group was measured and shown in FIG. 10A. The fecal occult bleeding per rectum, total bleeding loss, and fecal concentration were measured daily.
By the same method as in Example 6.1, experimental groups were divided into a DSS untreated group (Control), a DSS treated group, and a DSS-+β-lapachone 80 mg/kg treated group, respectively, and treated. After the end of the experiment, the mice were sacrificed to remove the colon, and the accurate colon length was measured using a Vernier caliper, and is shown FIGS. 11A and 11B. In addition, the mRNA levels of genes of interleukin-1beta (IL-1β), interleukin-6 (IL-6), interleukin-18 (IL-18), interferon-γ (INF-γ), tumor necrosis factor-α (TNF-α), tumor necrosis factor-β (TNF-β), and monocyte chemoattractant protein-1 (MCP-1), which were inflammatory cytokine factors in the colon tissue, were analyzed by a real-time polymerase chain reaction through a conventional experiment procedure, and are shown in FIG. 12.

[5] = DDC + β-lapachone 20, 40, 80, 100 mg/kg in diet, depending on the concentration
[6] = liver mRNA, DDC + β-lapachone, depending on the concentration
[7] = DSS + β-lapachone 80 mg/kg vs DSS

CC1(C)CCC2=C(O1)c1ccccc1C(=O)C2=O [β-lapachone]
protein expression level of fibronectin increased by TGF-β1 [1]: reduced depending on the concentration | protein expression level of α-SMA increased by TGF-β1 [1]: reduced depending on the concentration | ALP in the blood [2, 5]: inhibited | ALT in the blood [2, 5]: inhibited | AST in the blood [2, 5]: inhibited | bilirubin in the blood [2, 5]: inhibited | transcriptional level of IL-1β ([2]; liver mRNA, DDC + β-lapachone): inhibited | transcriptional level of TNFα ([2]; liver mRNA, DDC + β-lapachone): inhibited | transcriptional level of Col1α1 [2, 6]: inhibited | transcriptional level of Col1α2 [2, 6]: inhibited | transcriptional level of TGF-β1 [2, 6]: inhibited | effect on blood indexes (ALT, AST, ALP, bilirubin) compared with positive controls ([2]; vs ursodeoxycholic acid 100 mg/kg and obeticholic acid 30 mg/kg): excellent effects compared with ursodeoxycholic acid (UDCA) and obeticholic acid (OCA) | expression level of IL-1β protein increased by LPS and ATP [3]: reduced depending on the concentration | expression level of TNF-α protein increased by LPS and ATP [3]: reduced depending on the concentration | mRNA level of IL-1β in colon tissue [4, 7]: significantly reduced | mRNA level of IL-6 in colon tissue [4, 7]: significantly reduced | mRNA level of IL-18 in colon tissue [4, 7]: significantly reduced | mRNA level of INF-γ in colon tissue [4, 7]: significantly reduced | mRNA level of MCP-1 in colon tissue [4, 7]: significantly reduced | mRNA level of TNF-α in colon tissue [4, 7]: significantly reduced | mRNA level of TNF-β in colon tissue [4, 7]: significantly reduced | colon length ([4]; DSS + β-lapachone 80 mg/kg vs DSS treated group): recovered | colitis score ([4]; sum of scores for body weight reduction, feces condition, blood feces (Table 3), β-lapachone 40 and 80 mg/kg): reduced depending on the treatment concentration | mortality (percent of mice that died) ([4]; β-lapachone 40 mg/kg orally): 50% | mortality (percent of mice that died) ([4]; β-lapachone 80 mg/kg orally): 20%
